What was measured:
[1] = (§1) Photo selectivity index, ratio of CC50 for darktoxicity in human Bcap37 cells assessed as cell viability preincubated for 24 hrs followed by incubation under dark condition for 24 hrs by MTT assay to IC50 for phototoxicity in human Bcap37 cells assessed as cell viability preincubated for 24 hrs followed by white light irradiation at 20 mW/cm2 for 10 mins and measured after 24 hrs by MTT assay; format: toxicity, cell-based; settings: read-out: Ratio CC50/IC50
[2] = Phototoxicity in mouse 4T1 cells assessed as cell viability preincubated for 24 hrs followed by white light irradiation at 20 mW/cm2 for 10 mins and measured after 24 hrs by MTT assay; format: functional, cell-based; settings: 4T1, light or radiation study
[3] = Darktoxicity in human Bcap37 cells assessed as cell viability preincubated for 24 hrs followed by incubation under dark condition for 24 hrs by MTT assay; format: toxicity, cell-based; settings: time 48 hrs
[4] = as §1, with “MDA-MB-231” for “Bcap37”; format: toxicity, cell-based; settings: read-out: Ratio CC50/IC50
[5] = as §1, with “MCF7” for “Bcap37”; format: toxicity, cell-based; settings: read-out: Ratio CC50/IC50
[6] = Darktoxicity in human MCF7 cells assessed as cell viability preincubated for 24 hrs followed by incubation under dark condition for 24 hrs by MTT assay; format: toxicity, cell-based; settings: time 48 hrs
[7] = Phototoxicity in human Bcap37 cells assessed as cell viability preincubated for 24 hrs followed by white light irradiation at 20 mW/cm2 for 10 mins and measured after 24 hrs by MTT assay; format: functional, cell-based; settings: Bcap37, light or radiation study
[8] = Darktoxicity in mouse 4T1 cells assessed as cell viability preincubated for 24 hrs followed by incubation under dark condition for 24 hrs by MTT assay; format: toxicity, cell-based; settings: time 48 hrs
[9] = Darktoxicity in human MDA-MB-231 cells assessed as cell viability preincubated for 24 hrs followed by incubation under dark condition for 24 hrs by MTT assay; format: toxicity, cell-based; settings: time 48 hrs
[10] = Phototoxicity in human MDA-MB-231 cells assessed as cell viability preincubated for 24 hrs followed by white light irradiation at 20 mW/cm2 for 10 mins and measured after 24 hrs by MTT assay; format: functional, cell-based; settings: MDA-MB-231, light or radiation study
[11] = as §1, with “mouse 4T1” for “human Bcap37”; format: toxicity, cell-based; settings: read-out: Ratio CC50/IC50
[12] = Phototoxicity in human MCF7 cells assessed as cell viability preincubated for 24 hrs followed by white light irradiation at 20 mW/cm2 for 10 mins and measured after 24 hrs by MTT assay; format: functional, cell-based; settings: MCF7, light or radiation study

C=Cc1c(C)c2cc3nc(c(CC(=O)O)c4[nH]c(cc5nc(cc1[nH]2)C(C)=C5CC)c(C)c4C(=O)O)[C@@H](CCC(=O)O)[C@@H]3C [CHLORIN E6]
selectivity ratio [1]: > 39 | IC50 [2]: 862 nM | CC50 at 24 h [3]: > 50000 nM | selectivity ratio [4]: > 43 | selectivity ratio [5]: > 59 | CC50 at 24 h [6]: > 50000 nM | IC50 [7]: 1270 nM | CC50 at 24 h [8]: > 50000 nM | CC50 at 24 h [9]: > 50000 nM | IC50 [10]: 1170 nM | selectivity ratio [11]: > 58 | IC50 [12]: 850 nM

Source: ChEMBL document CHEMBL6103570, “An endoplasmic reticulum and lipid droplets dual-localized strategy to develop small molecular photosensitizers that induce ferroptosis during photodynamic therapy” (Eur J Med Chem, 2025)
